# According to patent publication US20250034136A1 (Nimbus Wadjet, Inc., priority 2023, published 2025):
# What was measured:
# [1] = biological target: WRN (BV08), human Werner helicase (Uniprot Q14191, amino acids 517-1235 with L1074F point mutation) (Homo sapiens (Human), UniProt Q14191, L1074F); assay: WRN (BV08) ADP-Glo assay; format: biochemical; conditions: class symbols A-E, read-out: ADP-Glo_hWRN_IC50
# [2] = tested on: p21 induction in HCT116 cells; assay: p21 induction in HCT116 cells; format: cell-based; conditions: Homo sapiens, HCT-116, 24 h, HCT116 cells, 24 h compound incubation; read-out: P21_EC50
# Summary of the method: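 HCT116 cells, 2,000/well, treated 24 h at 37 °C with 11-point compound dilutions in duplicate. Fixed, then immunostained for p21 and GAPDH and read by near-IR imaging at 800/700 nm. Normalized to DMSO (low) and reference WRN inhibitor (high) controls; EC50 from non-linear regression.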
# Chain of WRN (BV08), human Werner helicase (Uniprot Q14191, amino acids 517-1235 with L1074F point mutation) (Q14191 other isoform, or with tags, fused parts or gaps L1074F (already in the parent)): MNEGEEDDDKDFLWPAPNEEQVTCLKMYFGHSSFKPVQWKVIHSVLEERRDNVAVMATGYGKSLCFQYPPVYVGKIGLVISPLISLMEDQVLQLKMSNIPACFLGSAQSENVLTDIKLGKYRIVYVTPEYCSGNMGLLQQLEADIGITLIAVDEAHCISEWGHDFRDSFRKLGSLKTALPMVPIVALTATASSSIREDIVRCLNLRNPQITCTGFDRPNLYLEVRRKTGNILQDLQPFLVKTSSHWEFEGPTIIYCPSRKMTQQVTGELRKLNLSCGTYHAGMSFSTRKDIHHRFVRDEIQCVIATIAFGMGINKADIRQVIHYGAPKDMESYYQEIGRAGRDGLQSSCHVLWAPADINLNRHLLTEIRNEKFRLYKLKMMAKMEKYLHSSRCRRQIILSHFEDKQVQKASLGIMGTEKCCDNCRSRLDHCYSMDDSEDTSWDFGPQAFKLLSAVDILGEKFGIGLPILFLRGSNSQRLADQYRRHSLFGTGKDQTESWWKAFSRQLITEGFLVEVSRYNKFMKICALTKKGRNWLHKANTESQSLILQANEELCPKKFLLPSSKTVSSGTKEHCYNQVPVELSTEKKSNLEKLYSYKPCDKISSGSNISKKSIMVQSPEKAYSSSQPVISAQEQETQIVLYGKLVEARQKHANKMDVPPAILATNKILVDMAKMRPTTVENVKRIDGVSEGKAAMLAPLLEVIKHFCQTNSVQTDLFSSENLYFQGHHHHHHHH
SMILES,IC50 [1],EC50 [2]
"CCc1c(N2CCN(C(=O)c3ncnc(C)c3O)CC2)c(=O)c2nc(OC3COC3)cnc2n1CC(=O)Nc1ccc(C(F)(F)F)cc1Cl [I-140, N-[2-chloro-4-(trifluoromethyl)phenyl]-2-{6-ethyl-7-[4-(5-hydroxy-6-methylpyrimidine-4-carbonyl)piperazin-1-yl]-2-(oxetan-3-yloxy)-8-oxo-5H,8H-pyrido[2,3-b]pyrazin-5-yl}acetamide]",> 500 nM,> 5000 nM
"CCc1c(N2CCN(C(=O)c3ncnc(C)c3O)CC2)c(=O)c2nc(OC3CCC3)cnc2n1CC(=O)Nc1ccc(C(F)(F)F)cc1Cl [I-141, N-[2-chloro-4-(trifluoromethyl)phenyl]-2-{2-cyclobutoxy-6-ethyl-7-[4-(5-hydroxy-6-methylpyrimidine-4-carbonyl)piperazin-1-yl]-8-oxo-5H,8H-pyrido[2,3-b]pyrazin-5-yl}acetamide]",5 to 50 nM,> 5000 nM
"CCc1c(N2CCN(C(=O)c3ncnc(C)c3O)CC2)c(=O)c2nc(/C=C3\CCC3C)cnc2n1CC(=O)Nc1ccc(C(F)(F)F)cc1Cl (stereo not shown) [I-142, N-[2-chloro-4-(trifluoromethyl)phenyl]-2-{6-ethyl-7-[4-(5-hydroxy-6-methylpyrimidine-4-carbonyl)piperazin-1-yl]-2-[(2-methylcyclobutylidene)methyl]-8-oxo-5H,8H-pyrido[2,3-b]pyrazin-5-yl}acetamide]",≤ 5 nM,500 to 2000 nM
"CCc1c(N2CCN(C(=O)c3ncnc(C)c3O)CC2)c(=O)c2nc(/C=C/C3CCC3)cnc2n1CC(=O)Nc1ccc(C(F)(F)F)cc1Cl [I-144, N-[2-chloro-4-(trifluoromethyl)phenyl]-2-{2-[(1E)-2-cyclobutylethenyl]-6-ethyl-7-[4-(5-hydroxy-6-methylpyrimidine-4-carbonyl)piperazin-1-yl]-8-oxo-5H,8H-pyrido[2,3-b]pyrazin-5-yl}acetamide]",≤ 5 nM,500 to 2000 nM
"CCc1c(N2CCN(C(=O)c3c(C#N)cnc(C)c3O)CC2)c(=O)c2ncc(C)nc2n1CC(=O)Nc1ccc(C(F)(F)F)cc1Cl [I-145, N-[2-chloro-4-(trifluoromethyl)phenyl]-2-{7-[4-(5-cyano-3-hydroxy-2-methylpyridine-4-carbonyl)piperazin-1-yl]-6-ethyl-3-methyl-8-oxo-5H,8H-pyrido[2,3-b]pyrazin-5-yl}acetamide]",5 to 50 nM,> 5000 nM
"CCc1c(N2CCCN(C(=O)c3ncnc(C)c3O)CC2)c(=O)c2nc(N(C)C)cnc2n1CC(=O)Nc1ccc(C(F)(F)F)cc1Cl [I-147, N-[2-chloro-4-(trifluoromethyl)phenyl]-2-[2-(dimethylamino)-6-ethyl-7-[4-(5-hydroxy-6-methylpyrimidine-4-carbonyl)-1,4-diazepan-1-yl]-8-oxo-5H,8H-pyrido[2,3-b]pyrazin-5-yl]acetamide]",5 to 50 nM,> 5000 nM
"CCc1c(N2CCN(C(=O)c3ncnc(C)c3O)CC2)c(=O)c2nc(N(C)C)cnc2n1CC(=O)Nc1c(F)cc(C(F)(F)F)cc1F [I-148, N-[2,6-difluoro-4-(trifluoromethyl)phenyl]-2-[2-(dimethylamino)-6-ethyl-7-[4-(5-hydroxy-6-methylpyrimidine-4-carbonyl)piperazin-1-yl]-8-oxo-5H,8H-pyrido[2,3-b]pyrazin-5-yl]acetamide]",5 to 50 nM,> 5000 nM
"CCc1c(N2CCN(C(=O)c3ncnc(C)c3O)CC2)c(=O)c2nc(N3CCC[C@@H]3C)cnc2n1CC(=O)Nc1ccc(C(F)(F)F)cc1Cl [I-149, N-[2-chloro-4-(trifluoromethyl)phenyl]-2-{6-ethyl-7-[4-(5-hydroxy-6-methylpyrimidine-4-carbonyl)piperazin-1-yl]-2-[(2S)-2-methylpyrrolidin-1-yl]-8-oxo-5H,8H-pyrido[2,3-b]pyrazin-5-yl}acetamide]",5 to 50 nM,500 to 2000 nM
"CCc1c(N2CCN(C(=O)c3ncnc(C)c3O)CC2)c(=O)c2nc(N3CCC[C@H]3C)cnc2n1CC(=O)Nc1ccc(C(F)(F)F)cc1Cl [I-150, N-[2-chloro-4-(trifluoromethyl)phenyl]-2-{6-ethyl-7-[4-(5-hydroxy-6-methylpyrimidine-4-carbonyl)piperazin-1-yl]-2-[(2R)-2-methylpyrrolidin-1-yl]-8-oxo-5H,8H-pyrido[2,3-b]pyrazin-5-yl}acetamide]",5 to 50 nM,500 to 2000 nM
"CCc1c(N2CCN(C(=O)c3ncnc(C)c3O)CC2)c(=O)c2nc(N3CCC4(CCC4)C3)cnc2n1CC(=O)Nc1ccc(C(F)(F)F)cc1Cl [I-151, 2-(2-{6-azaspiro[3.4]octan-6-yl}-6-ethyl-7-[4-(5-hydroxy-6-methylpyrimidine-4-carbonyl)piperazin-1-yl]-8-oxo-5H,8H-pyrido[2,3-b]pyrazin-5-yl)-N-[2-chloro-4-(trifluoromethyl)phenyl]acetamide]",5 to 50 nM,2000 to 5000 nM
"CCc1c(N2CCN(C(=O)c3ncnc(C)c3O)CC2)c(=O)c2nc(N3CCCC3C(C)(C)O)cnc2n1CC(=O)Nc1ccc(C(F)(F)F)cc1Cl (stereo not shown) [I-152, N-[2-chloro-4-(trifluoromethyl)phenyl]-2-{6-ethyl-7-[4-(5-hydroxy-6-methylpyrimidine-4-carbonyl)piperazin-1-yl]-2-[2-(2-hydroxypropan-2-yl)pyrrolidin-1-yl]-8-oxo-5H,8H-pyrido[2,3-b]pyrazin-5-yl}acetamide]",5 to 50 nM,> 5000 nM
"CCc1c(N2CCN(C(=O)c3ncnc(C)c3O)CC2)c(=O)c2nc(N3CCC[C@H]3C(C)(C)O)cnc2n1CC(=O)Nc1ccc(C(F)(F)F)cc1Cl [I-153, N-[2-chloro-4-(trifluoromethyl)phenyl]-2-{6-ethyl-7-[4-(5-hydroxy-6-methylpyrimidine-4-carbonyl)piperazin-1-yl]-2-[(2S)-2-(2-hydroxypropan-2-yl)pyrrolidin-1-yl]-8-oxo-5H,8H-pyrido[2,3-b]pyrazin-5-yl}acetamide]",5 to 50 nM,2000 to 5000 nM
"CCc1c(N2CCN(C(=O)c3ncnc(C)c3O)CC2)c(=O)c2nc(N(C)CCN(C)C)cnc2n1CC(=O)Nc1ccc(C(F)(F)F)cc1Cl [I-154, N-[2-chloro-4-(trifluoromethyl)phenyl]-2-(2-{[2-(dimethylamino)ethyl](methyl)amino}-6-ethyl-7-[4-(5-hydroxy-6-methylpyrimidine-4-carbonyl)piperazin-1-yl]-8-oxo-5H,8H-pyrido[2,3-b]pyrazin-5-yl)acetamide]",> 500 nM,> 5000 nM
"CCc1c(N2CCN(C(=O)c3ncnc(C)c3O)CC2)c(=O)c2nc(N3C[C@@H]4[C@H](C3)[C@H]4N(C)C)cnc2n1CC(=O)Nc1ccc(C(F)(F)F)cc1Cl [I-155, N-[2-chloro-4-(trifluoromethyl)phenyl]-2-{2-[(1R,5S,6S)-6-(dimethylamino)-3-azabicyclo[3.1.0]hexan-3-yl]-6-ethyl-7-[4-(5-hydroxy-6-methylpyrimidine-4-carbonyl)piperazin-1-yl]-8-oxo-5H,8H-pyrido[2,3-b]pyrazin-5-yl}acetamide]",50 to 100 nM,> 5000 nM
"CCc1c(N2CCN(C(=O)c3ncnc(C)c3O)CC2)c(=O)c2nc(N3CC4CC4C3)cnc2n1CC(=O)Nc1ccc(C(F)(F)F)cc1Cl (stereo not shown) [I-156, 2-(2-{3-azabicyclo[3.1.0]hexan-3-yl}-6-ethyl-7-[4-(5-hydroxy-6-methylpyrimidine-4-carbonyl)piperazin-1-yl]-8-oxo-5H,8H-pyrido[2,3-b]pyrazin-5-yl)-N-[2-chloro-4-(trifluoromethyl)phenyl]acetamide]",5 to 50 nM,500 to 2000 nM
"C=C(F)c1cnc2c(n1)c(=O)c(N1CCN(C(=O)c3ncnc(C)c3O)CC1)c(CC)n2CC(=O)Nc1ccc(C(F)(F)F)cc1Cl [I-157, N-[2-chloro-4-(trifluoromethyl)phenyl]-2-[6-ethyl-2-(1-fluoroethenyl)-7-[4-(5-hydroxy-6-methylpyrimidine-4-carbonyl)piperazin-1-yl]-8-oxo-5H,8H-pyrido[2,3-b]pyrazin-5-yl]acetamide]",5 to 50 nM,500 to 2000 nM
"CCc1c(N2CCN(C(=O)c3c(C#N)cnc(C)c3O)CC2)c(=O)c2nc(C)cnc2n1CC(=O)Nc1ccc(C(F)(F)F)cc1Cl [I-158, N-[2-chloro-4-(trifluoromethyl)phenyl]-2-{7-[4-(5-cyano-3-hydroxy-2-methylpyridine-4-carbonyl)piperazin-1-yl]-6-ethyl-2-methyl-8-oxo-5H,8H-pyrido[2,3-b]pyrazin-5-yl}acetamide]",5 to 50 nM,> 5000 nM
"CCc1c(N2CCN(C(=O)c3ncnc(C)c3O)CC2)c(=O)c2nc(C3=CCN(C(=O)OC)C3)cnc2n1CC(=O)Nc1ccc(C(F)(F)F)cc1Cl [I-159, methyl 3-[5-({[2-chloro-4-(trifluoromethyl)phenyl]carbamoyl}methyl)-6-ethyl-7-[4-(5-hydroxy-6-methylpyrimidine-4-carbonyl)piperazin-1-yl]-8-oxo-5H,8H-pyrido[2,3-b]pyrazin-2-yl]-2,5-dihydro-1H-pyrrole-1-carboxylate]",5 to 50 nM,> 5000 nM
"CCc1c(N2CCN(C(=O)c3ncnc(C)c3O)CC2)c(=O)c2nc(N3CC(F)(F)C3)cnc2n1CC(=O)Nc1ccc(C(F)(F)F)cc1Cl [I-160, N-[2-chloro-4-(trifluoromethyl)phenyl]-2-[2-(3,3-difluoroazetidin-1-yl)-6-ethyl-7-[4-(5-hydroxy-6-methylpyrimidine-4-carbonyl)piperazin-1-yl]-8-oxo-5H,8H-pyrido[2,3-b]pyrazin-5-yl]acetamide]",5 to 50 nM,> 5000 nM
"CCc1c(N2CCN(C(=O)c3ncnc(C)c3O)CC2)c(=O)c2nc(NC3CCC3)cnc2n1CC(=O)Nc1ccc(C(F)(F)F)cc1Cl [I-161, N-[2-chloro-4-(trifluoromethyl)phenyl]-2-[2-(cyclobutylamino)-6-ethyl-7-[4-(5-hydroxy-6-methylpyrimidine-4-carbonyl)piperazin-1-yl]-8-oxo-5H,8H-pyrido[2,3-b]pyrazin-5-yl]acetamide]",5 to 50 nM,2000 to 5000 nM
